# Data: ChEMBL document CHEMBL1152416, “N-terminal-prolonged vinyl ester-based peptides as selective proteasome beta1 subunit inhibitors” (Bioorg Med Chem, 2009)
# Where a SMILES comes first, the peptide text is derived from it. The star is where a group is joined. Cbz = O=C(OCc1ccccc1)*; X1 = C=CO*
# Tests used:
# [1] = Inhibition of trypsin-like activity of proteasome from human PBMC after 30 mins by fluorimetry; assay type: subcellular
# [2] = Inhibition of post acidic activity of proteasome from human PBMC after 30 mins by fluorimetry; assay type: subcellular
# [3] = Inhibition of post acidic activity of proteasome from human LCL after 30 mins by fluorimetry; assay type: subcellular
# [4] = Inhibition of […] activity of proteasome from human PBMC after 30 mins by fluorimetry; assay type: subcellular
# [5] = Inhibition of […] activity of proteasome from human LCL after 30 mins by fluorimetry; assay type: subcellular
# [6] = Inhibition of trypsin-like activity of proteasome from human LCL after 30 mins by fluorimetry; assay type: subcellular
# [7] = Inhibition of trypsin-like activity of proteasome in human PBMC after 30 mins by cell based assay; details: 0.5 h
# Homo sapiens = species: Homo sapiens; assay: Stability in human plasma assessed as half life
# [8] = Inhibition of […] activity of proteasome from human PBMC after 30 mins by cell based assay; details: 0.5 h
# [9] = Inhibition of post acidic activity of proteasome from human PBMC after 30 mins by cell based assay; details: 0.5 h
# JIYOYE [10] = assay: Antiproliferative activity against human Jijoye cells assessed as cell viability at 10 uM after 3 days by trypan blue assay; assay type: functional, cell-based
# [11] = Antiproliferative activity against human LCL cells assessed as cell viability at 10 uM after 3 days by trypan blue assay; assay type: cell-based; details: 72 h
# [12] = Antiproliferative activity against human LCL cells assessed as cell viability at <10 uM after 3 days by trypan blue assay; assay type: cell-based; details: 72 h
# JIYOYE [13] = assay: Antiproliferative activity against human Jijoye cells assessed as cell viability at <10 uM after 3 days by trypan blue assay; assay type: functional, cell-based
Compound,IC50 [1],IC50 [2],IC50 [3],IC50 [4],IC50 [5],IC50 [6],IC50 [7],half-life (Homo sapiens),IC50 [8],IC50 [9],Activity (JIYOYE [10]),Activity [11],Activity [12],Activity (JIYOYE [13])
C=COC(=O)[C@H](CC(C)C)NC(=O)[C@H](CC(C)C)NC(=O)[C@H](CC(C)C)NC(=O)CCCCCCCNC(=O)OCc1ccccc1,> 10 µM,0.487 µM,2.43 µM,> 10 µM,> 10 µM,> 10 µM,–,–,–,–,–,–,–,–
C=COC(=O)[C@H](CC(C)C)NC(=O)[C@H](CC(C)C)NC(=O)[C@H](CC(C)C)NC(=O)CCCCCCNC(=O)OCc1ccccc1,> 10 µM,0.165 µM,1.67 µM,> 10 µM,> 10 µM,> 10 µM,–,–,–,–,–,–,–,–
C=COC(=O)[C@H](CC(C)C)NC(=O)[C@H](CO)NC(=O)[C@@H](NC(=O)CCCNC(=O)OCc1ccccc1)C(C)C,> 10 µM,0.745 µM,6.29 µM,> 10 µM,> 10 µM,> 10 µM,–,–,–,–,–,–,–,–
CC(C)C[C@@H](C=O)NC(=O)[C@H](CC(C)C)NC(=O)[C@H](CC(C)C)NC(=O)OCc1ccccc1 [MG-132] (Cbz-Leu-Leu-Leu-aldehyde),0.911 µM,> 10 µM,> 10 µM,0.023 µM,0.002 µM,1.08 µM,–,–,–,–,–,–,–,–
C=COC(=O)[C@H](CC(C)C)NC(=O)[C@H](CO)NC(=O)[C@@H](NC(=O)CCCCCNC(=O)OCc1ccccc1)C(C)C,> 10 µM,0.198 µM,1.39 µM,> 10 µM,> 10 µM,> 10 µM,> 10 µM,> 6 h,> 10 µM,0.41 µM,–,–,–,–
C=COC(=O)[C@H](CC(C)C)NC(=O)[C@H](CC(C)C)NC(=O)[C@H](CC(C)C)NC(=O)CCCNC(=O)OCc1ccccc1,7.23 µM,0.208 µM,2.07 µM,> 10 µM,> 10 µM,> 10 µM,> 10 µM,> 6 h,> 10 µM,0.33 µM,–,–,–,–
C=COC(=O)[C@H](CC(C)C)NC(=O)[C@H](CO)NC(=O)[C@@H](NC(=O)CCCCCCNC(=O)OCc1ccccc1)C(C)C,> 10 µM,0.186 µM,2.71 µM,> 10 µM,> 10 µM,> 10 µM,> 10 µM,> 6 h,> 10 µM,0.237 µM,–,–,–,–
C=COC(=O)[C@H](CC(C)C)NC(=O)[C@H](CC(C)C)NC(=O)[C@H](CC(C)C)NC(=O)CNC(=O)OCc1ccccc1 (Cbz-GLLL-X1),> 10 µM,0.545 µM,> 10 µM,> 10 µM,> 10 µM,> 10 µM,–,–,–,–,–,–,–,–
C=COC(=O)[C@H](CC(C)C)NC(=O)[C@H](CO)NC(=O)[C@@H](NC(=O)CNC(=O)OCc1ccccc1)C(C)C (Cbz-GVSL-X1),> 10 µM,2.89 µM,> 10 µM,> 10 µM,> 10 µM,> 10 µM,–,–,–,–,–,–,–,–
C=COC(=O)[C@H](CC(C)C)NC(=O)[C@H](CO)NC(=O)[C@@H](NC(=O)CCCCNC(=O)OCc1ccccc1)C(C)C,> 10 µM,0.231 µM,1.54 µM,> 10 µM,> 10 µM,> 10 µM,> 10 µM,> 6 h,> 10 µM,0.45 µM,–,–,–,–
C=COC(=O)[C@H](CC(C)C)NC(=O)[C@H](CO)NC(=O)[C@@H](NC(=O)CCCCCCCNC(=O)OCc1ccccc1)C(C)C,> 10 µM,0.175 µM,5.64 µM,> 10 µM,> 10 µM,> 10 µM,> 10 µM,> 6 h,> 10 µM,0.219 µM,Toxic,Toxic,Non-toxic,Non-toxic
C=COC(=O)[C@H](CC(C)C)NC(=O)[C@H](CC(C)C)NC(=O)[C@H](CC(C)C)NC(=O)CCCCCNC(=O)OCc1ccccc1,5.98 µM,0.053 µM,1.08 µM,> 10 µM,> 10 µM,> 10 µM,8.86 µM,> 6 h,> 10 µM,0.086 µM,Toxic,Toxic,Non-toxic,Non-toxic
C=COC(=O)[C@H](CC(C)C)NC(=O)[C@H](CC(C)C)NC(=O)[C@H](CC(C)C)NC(=O)CCNC(=O)OCc1ccccc1,> 10 µM,0.213 µM,2.34 µM,> 10 µM,> 10 µM,> 10 µM,> 10 µM,> 6 h,> 10 µM,0.32 µM,–,–,–,–
CC[C@H](C)[C@H](NC(=O)[C@H]([C@@H](C)CC)N(C)C(C)=O)C(=O)N[C@H](C(=O)N[C@@H](CC(C)C)C(=O)[C@@]1(C)CO1)[C@@H](C)O [EPOXOMYCIN],0.758 µM,> 10 µM,–,0.009 µM,0.005 µM,–,–,–,–,–,–,–,–,–
C=COC(=O)[C@H](CC(C)C)NC(=O)[C@H](CO)NC(=O)[C@@H](NC(=O)CCNC(=O)OCc1ccccc1)C(C)C,> 10 µM,0.831 µM,> 10 µM,> 10 µM,> 10 µM,> 10 µM,–,–,–,–,–,–,–,–
C=COC(=O)[C@H](CC(C)C)NC(=O)[C@H](CC(C)C)NC(=O)[C@H](CC(C)C)NC(=O)CCCCNC(=O)OCc1ccccc1,6.05 µM,0.078 µM,0.87 µM,> 10 µM,> 10 µM,> 10 µM,9.54 µM,> 6 h,> 10 µM,0.128 µM,–,–,–,–
